Measured values reported in paper PMC4279406, “Simultaneous targeting of PI3Kδ and a PI3Kδ-dependent MEK1/2-Erk1/2 pathway for therapy in pediatric B-cell acute lymphoblastic leukemia” (Oncotarget, 2014).

Legend:
Raji cells = assay: Annexin V-FITC/PI apoptosis assay (FACS); type: cell-based, human; details: 72 h
Text: (§1) Figure 3 PI3Kδ inhibition led to blockade of B cell leukemia cells proliferation via induction of cell cycle arrest and apoptosis Raji cells treated with X-370 for indicated times and at serial diluted concentrations were subjected to Annexin V-FITC/PI staining (A) and PI staining (B) and FACS analysis to show cell apoptosis and cell cycle distribution respectively. (C) X-370 inhibited proliferation of human leukemia primary cells. Freshly isolated human primary mononuclear cells from bone marrow samples of patients were treated with X-370 for 72 h and cell viability was assayed using CCK-8 assay. IC50s of each sample were plotted where 10 μM was assigned to specimens with IC50 >10 μM. Each symbol represents an individual patient sample. […]
Apoptosis was measured with annexin V–fluorescein isothiocyanate (FITC) /Propidium iodide (PI) kit (KeyGEN Biotech, Nanjing, China) as previously described. Fluorescence was acquired with a FACSCalibur instrument (BD Biosciences, CA) and analyzed using BD CellQuest Pro software.

primary B-ALL cells [1] = assay: Viability of primary mononuclear cells from pediatric patients (CCK-8); type: cell-based, human; details: 72 h, 8/13 specimens
Text: as §1
(§2) Cell viability was assessed using Cell Counting Kit (CCK-8, Dojindo, Japan) following the manufacturer's protocol and OD values were measured with a Spectramax M5 plate reader (Molecular Devices, Sunnyvale, CA)[45].
(§3) Bone marrow was obtained from patients after provision of informed consent using guidelines approved by the Committee on the Use of Human Subjects in Research at Shanghai Jiaotong University or Shanghai Fudan University under a protocol approved by the Review Board. […] Cell viability and phosphorylated Akt and Erk1/2 were then detected.

[2] = tested on: primary non B-ALL leukemia cells; assay: as above; type: cell-based, human; details: 72 h, 1/7 specimens
Text: as §1, §2, §3

primary B-ALL cells [3] = assay: Phosphorylated Akt and Erk1/2 in primary B-ALL cells (Western blot); type: cell-based, human; details: 72 h
Protocol: Figure 6 X-370-sensitive human primary B-ALL cells contained PI3K-dependent Erk1/2 phosphorylation and combination of AZD6244 and X-370 enhanced inhibitory activity against resistant specimens (A) X-370-sensitive human primary B-ALL cells contained PI3K-dependent Erk1/2 phosphorylation. Primary B-ALL cells were treated with series diluted X-370 for 72 h. Phosphorylation of Akt and Erk1/2 were detected. (B). Combination of AZD6244 and X-370 enhanced inhibitory activity against resistant specimens. X-370 resistant primary B-ALL cells were treated with 1 μM X-370 alone or cocurently with MEK1/2 inhibitor AZD6244 (1 μM) for 72 h and cell viability were tested by CCK-8 assay. Cell viability of each treated group was compared with unpaired t-tests. *: P < 0.05. (C) X-370-resistant primary B-ALL cells were treated with X-370 in the presence of 1 μM AZD6244 or not for 72 h and phosphorylated Akt and Erk1/2 were then detected by Western blot.
as §3

PI3Kδ = PI3Kδ (Homo sapiens, UniProt O00329); assay: PI3-Kinase HTRF assay with increasing ATP; type: biochemical; set-up: GST; made in house; host or cells: Sf9 insect cells; details: IC50 increasing in concert with ATP levels
Chain of PI3Kδ (O00329 whole entry): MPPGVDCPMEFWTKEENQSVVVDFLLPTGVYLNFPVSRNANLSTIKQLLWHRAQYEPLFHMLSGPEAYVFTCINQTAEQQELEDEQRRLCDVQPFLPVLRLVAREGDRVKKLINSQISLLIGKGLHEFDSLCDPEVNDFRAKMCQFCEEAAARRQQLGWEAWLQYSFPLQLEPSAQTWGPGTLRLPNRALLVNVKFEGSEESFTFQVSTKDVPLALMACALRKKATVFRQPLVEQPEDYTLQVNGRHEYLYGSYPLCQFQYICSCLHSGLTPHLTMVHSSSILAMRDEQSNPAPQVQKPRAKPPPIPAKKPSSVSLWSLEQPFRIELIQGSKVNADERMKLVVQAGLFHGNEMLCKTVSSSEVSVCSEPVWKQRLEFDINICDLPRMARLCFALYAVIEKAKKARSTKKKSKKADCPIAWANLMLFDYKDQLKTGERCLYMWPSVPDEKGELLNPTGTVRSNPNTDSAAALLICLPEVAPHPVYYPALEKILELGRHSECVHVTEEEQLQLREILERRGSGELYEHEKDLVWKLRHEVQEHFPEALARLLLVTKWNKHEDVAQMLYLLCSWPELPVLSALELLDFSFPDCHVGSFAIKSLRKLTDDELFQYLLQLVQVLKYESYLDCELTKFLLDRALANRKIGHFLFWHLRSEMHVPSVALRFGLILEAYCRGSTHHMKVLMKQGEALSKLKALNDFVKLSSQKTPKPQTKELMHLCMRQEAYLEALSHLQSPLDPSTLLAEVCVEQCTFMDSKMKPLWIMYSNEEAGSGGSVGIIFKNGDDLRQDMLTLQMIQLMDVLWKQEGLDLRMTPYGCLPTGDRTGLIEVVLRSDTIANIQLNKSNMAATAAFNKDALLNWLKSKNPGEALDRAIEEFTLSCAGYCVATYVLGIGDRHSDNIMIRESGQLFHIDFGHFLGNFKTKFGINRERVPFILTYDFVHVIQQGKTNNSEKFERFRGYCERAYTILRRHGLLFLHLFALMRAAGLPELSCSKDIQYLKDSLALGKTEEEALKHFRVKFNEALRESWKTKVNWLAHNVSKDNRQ
Chain of PI3Kδ (P27986 whole entry partner): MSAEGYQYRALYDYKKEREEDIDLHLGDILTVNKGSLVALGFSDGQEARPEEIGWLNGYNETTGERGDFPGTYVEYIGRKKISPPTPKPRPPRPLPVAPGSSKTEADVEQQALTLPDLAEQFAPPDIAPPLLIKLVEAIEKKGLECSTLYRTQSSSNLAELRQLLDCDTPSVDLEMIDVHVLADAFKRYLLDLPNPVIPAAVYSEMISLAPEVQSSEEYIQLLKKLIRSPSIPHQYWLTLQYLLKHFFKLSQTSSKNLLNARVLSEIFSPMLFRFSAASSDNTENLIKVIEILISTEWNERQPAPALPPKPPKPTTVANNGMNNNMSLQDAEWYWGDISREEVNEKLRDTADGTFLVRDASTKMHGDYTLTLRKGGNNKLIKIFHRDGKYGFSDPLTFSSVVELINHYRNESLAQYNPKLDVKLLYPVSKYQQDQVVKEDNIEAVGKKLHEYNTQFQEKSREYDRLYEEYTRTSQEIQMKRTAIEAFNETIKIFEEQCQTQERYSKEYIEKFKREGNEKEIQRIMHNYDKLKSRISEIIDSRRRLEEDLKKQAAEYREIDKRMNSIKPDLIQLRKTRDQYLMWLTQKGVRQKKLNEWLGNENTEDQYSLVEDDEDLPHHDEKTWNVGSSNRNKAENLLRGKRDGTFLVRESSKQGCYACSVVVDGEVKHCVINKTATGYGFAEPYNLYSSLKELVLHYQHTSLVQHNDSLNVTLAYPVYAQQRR
Text: Utilizing the crystal structure of PI3Kδ, we designed and synthesized a series of compounds in an effort to discover new potent and selective PI3Kδ inhibitors, which bind to PI3Kδ differently from CAL-101. […] The benzimidazole group of X-370 extends into the affinity pocket, where its nitrogen acts as a hydrogen bond acceptor for the primary amine of Lys779. The difluoromethyl group of X-370 points toward Pro758 in the hydrophobic affinity pocket. Instead of wedging between Met752 and Trp760, a binding mode utilized by CAL-101 to generate specificity against PI3Kδ (Figure S1), the pyrrole group of X-370 presses tightly against Trp760. These specific interactions of X-370 with p110δ confer a selective and potent inhibition of PI3Kδ. As expected, X-370 inhibited the kinase activity of PI3Kδ in an ATP-competitive manner, with IC50 increasing in concert with ATP levels (Figure 1C), confirming the binding of X-370 in the ATP pocket. […] More than 1000-fold selectivity was seen against other lipid kinases tested including PI3KC2α, PI3KC2γ, PIP4K2α, PIP5K1α and PIP5K1γ. […]
In vitro kinase profile assays were analyzed by the Kinase Profiler Service (Millipore, United Kingdom) following its guidelines. […] The PI3K kinase activity was determined in the increasing concentration of ATP and X-370 with PI3-Kinase HTRF™ Assay kit (Millipore) as described previously.

`O=C(N1CCCC1)N1CCC(n2cnc3c(-n4c(C(F)F)nc5ccccc54)nc(N4CCOCC4)nc32)CC1` [X-370] was tested, and the “cells that underwent apoptosis” value (Raji cells; 10 μM) was “about 28%”, the “concentration at which apoptotic cells were detectable” value (Raji cells) was no less than 5 µM and the “B-ALL specimens sensitive with IC50<1 μM” value (primary B-ALL cells [1]) was 61%. For the same compound, the “non B-ALL specimens sensitive with IC50<1 μM” value [2] was 14%, the “phosphorylated Erk1/2” value (primary B-ALL cells [3]; resistant (IC50>1 μM) samples) was “remained unaffected” and the “phosphorylated Akt and Erk1/2” value (primary B-ALL cells [3]; sensitive (IC50<1 μM) specimens, < 1 μM) was “dramatically decreased”. The “manner of inhibition of PI3Kδ kinase activity” value (PI3Kδ) was “ATP-competitive”.
